Measured values taken from article PMC3792221 (Biomolecules & Therapeutics, 2012).

How the values were obtained:
bovine adrenal DBH = target: T1, bovine adrenal DBH (Bos taurus, UniProt P15101); test: DBH inhibition assay in vitro; format: biochemical
T1 sequence (P15101 1-610): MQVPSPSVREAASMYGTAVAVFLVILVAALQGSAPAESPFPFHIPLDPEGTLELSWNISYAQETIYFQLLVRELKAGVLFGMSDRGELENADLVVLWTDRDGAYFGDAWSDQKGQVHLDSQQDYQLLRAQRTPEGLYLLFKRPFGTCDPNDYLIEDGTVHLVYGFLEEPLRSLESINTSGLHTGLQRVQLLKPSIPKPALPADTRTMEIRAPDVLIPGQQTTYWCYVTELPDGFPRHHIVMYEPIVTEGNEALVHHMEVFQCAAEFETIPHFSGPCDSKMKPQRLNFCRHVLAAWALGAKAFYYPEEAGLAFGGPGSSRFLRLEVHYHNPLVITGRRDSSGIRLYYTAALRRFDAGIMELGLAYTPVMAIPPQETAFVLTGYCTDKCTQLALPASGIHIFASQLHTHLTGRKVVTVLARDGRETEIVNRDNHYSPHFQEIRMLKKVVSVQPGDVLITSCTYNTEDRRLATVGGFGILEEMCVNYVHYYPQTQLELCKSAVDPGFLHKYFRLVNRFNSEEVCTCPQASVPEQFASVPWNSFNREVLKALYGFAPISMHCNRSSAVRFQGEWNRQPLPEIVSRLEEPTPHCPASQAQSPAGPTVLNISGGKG

[1] = target: T2, MAO-B (rat liver mitochondrial MAO) (Rattus norvegicus, UniProt P19643); test: MAO-B inhibition assay in vitro; format: biochemical
T2 sequence (P19643 1-520): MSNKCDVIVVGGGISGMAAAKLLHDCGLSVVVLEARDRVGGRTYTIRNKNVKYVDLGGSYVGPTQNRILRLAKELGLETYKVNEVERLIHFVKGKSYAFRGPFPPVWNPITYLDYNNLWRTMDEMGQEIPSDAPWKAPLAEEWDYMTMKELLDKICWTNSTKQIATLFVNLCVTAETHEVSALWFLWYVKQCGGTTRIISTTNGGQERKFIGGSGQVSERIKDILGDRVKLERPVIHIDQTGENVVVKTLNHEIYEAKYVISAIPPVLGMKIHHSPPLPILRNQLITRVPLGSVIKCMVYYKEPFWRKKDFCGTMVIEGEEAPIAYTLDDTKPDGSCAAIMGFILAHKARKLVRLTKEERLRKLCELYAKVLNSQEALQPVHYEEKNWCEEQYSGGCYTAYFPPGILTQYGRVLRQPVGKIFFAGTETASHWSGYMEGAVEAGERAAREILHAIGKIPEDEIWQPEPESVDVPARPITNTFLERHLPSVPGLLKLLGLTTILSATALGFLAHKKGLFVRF

[2] = target: T3, MAO-A (rat brain mitochondrial MAO) (Rattus norvegicus, UniProt P21396); test: MAO-A inhibition assay in vitro; format: biochemical
T3 sequence (P21396 1-526): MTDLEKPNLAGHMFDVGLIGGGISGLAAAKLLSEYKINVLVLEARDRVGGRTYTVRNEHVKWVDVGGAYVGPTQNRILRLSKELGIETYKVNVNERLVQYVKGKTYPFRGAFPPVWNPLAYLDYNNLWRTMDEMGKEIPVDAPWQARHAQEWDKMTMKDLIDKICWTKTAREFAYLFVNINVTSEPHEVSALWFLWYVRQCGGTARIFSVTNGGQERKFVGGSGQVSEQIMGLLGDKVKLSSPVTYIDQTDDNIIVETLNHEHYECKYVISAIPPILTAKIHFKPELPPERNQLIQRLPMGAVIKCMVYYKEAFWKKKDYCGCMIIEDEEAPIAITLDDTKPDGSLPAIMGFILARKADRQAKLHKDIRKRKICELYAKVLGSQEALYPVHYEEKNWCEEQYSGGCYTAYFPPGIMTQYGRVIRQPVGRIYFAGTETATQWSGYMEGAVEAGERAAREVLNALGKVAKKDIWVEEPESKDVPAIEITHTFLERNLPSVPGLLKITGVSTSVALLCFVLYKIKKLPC

neural stem cells = settings: ref Guan et al., 2009; cited from earlier work
[3] = isolated geniposide; ref Hou et al., 2008; Lu et al., 2011; cited from earlier work
[4] = IC50 value DBH, Table 1, 120 mM tyramine substrate
[5] = read-out: DBH inhibitory activity
[6] = read-out: MAO-B inhibitory activity
[7] = IC50 value MAO-A, Table 1, 1 mM serotonin substrate
[8] = read-out: MAO-A inhibitory activity

IC50 (bovine adrenal DBH; [4])	inhibition at 50 µg/mL (bovine adrenal DBH; [5])	inhibition at 100 µg/mL (bovine adrenal DBH; [5])	IC50 [1]	inhibition at 50 µg/mL [1, 6]	inhibition at 100 µg/mL [1, 6]	IC50 [2, 7]	SMILES	also measured
334 µM	49.2 ± 3.1%	64.1 ± 6.8%	300 µM	50.4 ± 5.9%	71.6 ± 9.3%	2.41 mM	O=C(O)c1ccc(O)c(O)c1 [Compound 1, protocatechuic acid]	inhibition at 500 µg/mL (bovine adrenal DBH; [5]): 97.2 ± 2%; Specific activity on MAO-B relative to that on MAO-A ([1]; from Table 1): about 8 times; inhibition at 500 µg/mL [1, 6]: 108 ± 1.3%; IC50 ([2]; IC50 MAO-A (abstract)): 2.41 mM; inhibition at 50 µg/mL [2, 8]: 7.3 ± 2.6%; inhibition at 100 µg/mL [2, 8]: 12.8 ± 4.8%; inhibition at 500 µg/mL [2, 8]: 67.4 ± 5.2%; Apoptosis of neural stem cells (neural stem cells): inhibit apoptosis; Proliferation of neural stem cells (neural stem cells): increase proliferation
> 12900 µM	–	–	223 µM	42.8 ± 2.2%	52.2 ± 1.5%	> 12.9 mM	COC(=O)C1=CO[C@@H](O[C@@H]2O[C@H](CO)[C@@H](O)[C@H](O)[C@H]2O)[C@@H]2C(CO)=CC[C@H]12 [Compound 2, geniposide]	inhibition at 4 µg/mL [1, 6]: 9.2 ± 1.2%; inhibition at 20 µg/mL [1, 6]: 16 ± 0.6%; Absorption percentage [3]: very low
214 µM	33.2 ± 6.9%	51.2 ± 5.9%	780 µM	17.1 ± 1.1%	28.7 ± 8%	> 11 mM	C[C@H]1[C@H](C)CC[C@]2(C(=O)O)CC[C@]3(C)C(=CC[C@@H]4[C@@]5(C)CC[C@H](O)C(C)(C)[C@@H]5CC[C@]43C)[C@H]12 [Compound 5, ursolic acid]	IC50 (bovine adrenal DBH; IC50 DBH): 215 µM; inhibition at 2 µg/mL (bovine adrenal DBH; [5]): 18.2 ± 7.6%; inhibition at 10 µg/mL (bovine adrenal DBH; [5]): 20.8 ± 10.7%; MAO-A inhibition (in words) [2]: no inhibition
